Laboratory results reported in patent US5849751A, “Amides and sulphonamides of benzylamines having heterocyclic substituents” (Bayer Aktiengesellschaft, priority 1995, dated 1998).

System: release of apoB-100-associated lipoproteins from liver cells (HepG2)
Test: Inhibition of the release of apoB-100-associated lipoproteins (HepG2 cells, immunoassay)
Format: cell-based
Settings: Homo sapiens; HepG2 culture supernatant, anti-LDL immunoassay, light absorption at 450 nm vs solvent control
Method: 1. Inhibition of the release of apoB-100-associated lipoproteins
The test for detection of the inhibition of the release of apoB-100-associated lipoproteins from liver cells was carried out in vitro with cultured liver cells, preferably with cells of the human line HepG2. These cells are cultured under standard conditions in a medium for the culture of eukaryotic cells, preferably in RPMI 1640 with 10% foetal calf serum. HepG2 cells synthesize and secrete into the culture supernatant apoB-100-associated lipoprotein particles, which in principle are similar in structure to the VLDL and LDL particles to be found in plasma.
These particles can be detected with an immunoassay for human LDL. This immunoassay is carried out with antibodies which had been induced in the rabbit against human LDL under standard conditions. The anti-LDL antibodies (rab-anti-LDL- ab) were purified by affinity chromatography on an immunosorbent with human LDL. These purified rab-anti-LDL-ab are adsorbed onto the surface of a plastic. This adsorption is expediently carried out onto the plastic surface of microtitre plates with 96 wells, preferably on MaxiSorp plates. If apoB-100-associated particles are present in the supernatant of Hep-G2 cells, these can bind to the insolubilized rab-anti-LDL-ab, and an immune complex bonded to the plastic surface is formed. Non-bound proteins are removed by washing. The immune complex on the plastic surface is detected with monoclonal antibodies which have been induced against human LDL and purified under standard conditions. These antibodies were conjugated with the enzyme peroxidase. Peroxidase converts the colourless substrate TMB into a coloured product in the presence of H2 O2. After acidification of the reaction mixture with H2 SO4, the specific adsorption of light at 450 nm is determined, this being a measure of the amount of apoB-100-associated particles which have been secreted into the culture supernatant by the HepG2 cells.
The IC50 value indicates the concentration of substance at which the adsorption of light is inhibited by 50% compared with the control (solvent control without substance).

| IC50 [nM] | SMILES |
| --- | --- |
| 34 | Cc1cc(C)c2c3ccccc3n(Cc3ccc(C(NC(=O)Cc4ccccc4)C4CCCC4)cc3)c2n1 (stereo not drawn) [Example 4] |
| 300 | Cc1cc(C)c2c3ccccc3n(Cc3ccc(C(NC(=O)C(=NO)c4ccccc4)C4CCCC4)cc3)c2n1 (racemic) [Example 24, 9-{4-[1-(R,S)-1-(2-(E,Z)-2-hydroxyimino-2-phenyl-acetyl)amino-1-cyclopentyl-methyl]phenyl-methyl}-2,4-dimethyl-α-carboline] |
| 39 | Cc1cc(C)c2c3ccccc3n(Cc3ccc(C(NC(=O)C(O)c4ccccc4)C4CCCC4)cc3)c2n1 (racemic) [Example 18, 9-{4-[1-(R,S)-1-(2-(R,S)-2-Phenyl-2-hydroxy-acetyl)amino-1-cyclopentyl-methyl]phenyl-methyl}-2,4-dimethyl-α-carboline] |
| 38 | COc1ccc(CC(=O)NC(c2ccc(Cn3c4ccccc4c4c(C)cc(C)nc43)cc2)C2CCCC2)cc1 (stereo not drawn) [Example 5] |
| > 2000 | Cc1cc(C)c2c3ccccc3n(Cc3ccc(C(N)C4CCCC4)cc3)c2n1 (racemic) [Example 1, 9-{4-[1-(R,S1-Amino-1-cyclopentyl-methyl]phenyl-methyl}-2,4-dimethyl-(α-carboline] |
| 460 | Cc1cc(C)c2c3ccccc3n(Cc3ccc(C(NS(=O)(=O)Cc4ccccc4)C4CCCC4)cc3)c2n1 (stereo not drawn) [Example 3] |
